How the values were obtained:
Type in all cases: in vivo
[1] = tested on: cynomolgus monkey; assay: Repeat dose (28 day) toxicity study in cynomolgus monkey; settings: 28 day repeat dose, 160 mg/kg/day
Method: (§1) Repeated dose (28 day) toxicity studies were conducted using ANEB-001 in two species, rat and primate, selected on the basis of acceptable bioavailability and comparison of metabolite profiles with those in human liver microsomes.

[2] = tested on: rat; assay: Repeated dose (28 day) toxicity study in rat; settings: 28 day repeated dose
Method: as §1

[3] = Single ascending oral dose pharmacokinetics in humans; settings: human plasma, single oral dose 1-200 mg
Method: Human subjects were assigned to six different dosage groups of ANEB-001. Groups assigned to receive dosages of 1 mg, 5 mg, 25 mg, 100 mg, or 200 mg had six subjects each, and the 150 mg dosage group had four subjects. ANEB-001 was administered orally to subjects in each group, and the plasma concentration of ANEB-001 in each subject was measured as a function of time after dosing (FIG. 2).

[4] = tested on: C57 mice; assay: Reversal of THC-induced hypolocomotion in mice; settings: 30 min pre-test, THC 3 mg/kg ip 10 min pre-test
Method: Reversal of THC-induced hypolocomotion in mice: Six C57 mice (Charles River, Wilmington, Mass.) were administered Δ9-tetrahydrocannabinol (THC) 3 mg/kg ip, 10 min pre-test. […] In this apparatus, four qualitatively different measures of locomotor activity are automatically scored. […] The magnitude of the effect is similar to that elicited by rimonabant given at 3 mg/kg po, and given 30 min pre-test.

CC(C)(C)NC(=O)N1CC(O[C@H](c2ccc(Cl)cc2)c2ccccc2C(F)(F)F)C1 [ANEB-001, 3-[(R)-2-(trifluoromethyl)-4′-chlorobenzhydryloxy]-N-(tert-butyl)azetidine-1-carboxamide]
adverse effects at the highest dose level studied [1]: no adverse effects were observed
no observed adverse effect level [2]: 75 mg/kg/day
hepatic findings ([2]; 75 mg/kg/day): hepatic changes consistent with an adaptive response
adverse effects at the highest dose tested ([2]; highest dose 75 mg/kg/day): No adverse effects were observed
Tmax [3]: 1 to 1.6 h
half-life ([3]; read-out: terminal elimination half-life): ≤ 456 h
action of THC on the total active time parameter of locomotor measures ([4]; 30 mg/kg orally, 15 min in locomotor activity cages, FIG. 1): significantly reversed

Cc1c(C(=O)NN2CCCCC2)nn(-c2ccc(Cl)cc2Cl)c1-c1ccc(Cl)cc1 [rimonabant, reference compound]
magnitude of the effect on THC-induced hypolocomotion (total active time), compared with ANEB-001 ([4]; 3 mg/kg po): similar
